Data taken from paper PMC10816276 (International Journal of Molecular Sciences, 2024).

Molecular target: T1, Mushroom tyrosinase (mTyr) (Agaricus bisporus, UniProt C7FF04)
T1 construct: purchased Sigma-Aldrich
Experiment: mTyr inhibition kinetics (Lineweaver-Burk)
Type: biochemical
Method: The mTyr inhibition kinetics of 6′-O-caffeoylarbutin were studied using a method similar to the previously reported procedure for determining the inhibitory activity of 6′-O-caffeoylarbutin on mTyr.
I. Enzyme inhibition mechanism study. For the investigation of the enzyme inhibition mechanism, L-DOPA was used at a final concentration of 0.5 mmol·L^−1, and the mTyr was set at final concentrations of 8.1, 32.5, and 65.0 U·mL^−1. The rate of change of optical density (OD) at 490 nm was measured for various concentrations of 6′-O-caffeoylarbutin (ranging from 10 to 100 μM). A graph was plotted to depict the relationship between the rate of change of OD values and the mTyr concentration under the influence of different concentrations of 6′-O-caffeoylarbutin.
II. Enzyme inhibition type study. To determine the enzyme inhibition type, L-DOPA was used with final concentrations of 0.2, 0.5, 0.6, and 0.8 mmol·L^−1, while mTyr was used at a final concentration of 31.25 U·mL^−1. The rate of change of OD at 490 nm was measured for various concentrations of 6′-O-caffeoylarbutin (ranging from 0 to 100 μM). A reciprocal plot was generated using the rate of change of OD values and L-DOPA concentration. The inhibition constants were obtained based on the inhibition type of 6′-O-caffeoylarbutin on mTyr using quadratic plotting of the 6′-O-caffeoylarbutin concentration and the slope and vertical intercept of the line in the Lineweaver_Burk double reciprocal plot and Dixon plot.

T1 sequence (C7FF04 1-392): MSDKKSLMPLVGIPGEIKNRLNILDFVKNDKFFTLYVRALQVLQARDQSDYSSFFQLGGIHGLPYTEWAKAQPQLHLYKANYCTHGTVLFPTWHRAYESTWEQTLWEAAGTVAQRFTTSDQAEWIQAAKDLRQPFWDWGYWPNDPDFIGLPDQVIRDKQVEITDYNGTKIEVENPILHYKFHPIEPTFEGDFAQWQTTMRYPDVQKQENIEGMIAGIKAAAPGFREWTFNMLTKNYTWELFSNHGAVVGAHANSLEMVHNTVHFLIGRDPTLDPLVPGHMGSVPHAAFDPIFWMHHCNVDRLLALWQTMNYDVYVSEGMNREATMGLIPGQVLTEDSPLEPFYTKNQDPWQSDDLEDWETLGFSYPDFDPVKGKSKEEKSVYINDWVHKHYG

Compound: O=C(C=Cc1ccc(O)c(O)c1)OCC1OC(Oc2ccc(O)cc2)C(O)C(O)C1O (stereo not drawn) [6′-O-caffeoylarbutin]
- inhibition type on mTyr (Lineweaver-Burk, substrate L-DOPA): competitive inhibition
- Ki (binding to free enzyme, substrate L-DOPA, read-out: inhibition constant (Ki) on mTyr): 1340 ± 920 nM
- reversibility of mTyr inhibition (rate vs enzyme concentration, 10-100 μM inhibitor, L-DOPA 0.5 mmol·L^−1): reversible
